Data published in PubChem BioAssay (NCI).
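Compound exposure: 48 hours, 5 concentrations, 96-well plates. Abbreviation: GI50, concentration required for 50% inhibition of growth. TGI is the concentration that stops growth completely.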

Columns and labels:
Assay in all cases: NCI tumour cell line growth inhibition, 48 h
SNB-75 CNS = test system: SNB-75 CNS
SF-268 CNS = test system: SF-268 CNS
OVCAR-4 ovarian = test system: OVCAR-4 ovarian
UO-31 renal = test system: UO-31 renal
KM12 colon = test system: KM12 colon
EKVX NSCLC = test system: EKVX NSCLC
RXF-631 renal = test system: RXF-631 renal
HCT-15 colon = test system: HCT-15 colon
SN12C renal = test system: SN12C renal
TK-10 renal = test system: TK-10 renal
LXFL 529 NSCLC = test system: LXFL 529 NSCLC
LOX IMVI melanoma = test system: LOX IMVI melanoma
OVCAR-3 ovarian = test system: OVCAR-3 ovarian
SR leukemia = test system: SR leukemia
UACC-62 melanoma = test system: UACC-62 melanoma
HOP-92 NSCLC = test system: HOP-92 NSCLC
M19-MEL melanoma = test system: M19-MEL melanoma
MOLT-4 leukemia = test system: MOLT-4 leukemia
DMS 273 small cell lung = test system: DMS 273 small cell lung
SW-620 colon = test system: SW-620 colon
RXF 393 renal = test system: RXF 393 renal
SK-MEL-28 melanoma = test system: SK-MEL-28 melanoma
CCRF-CEM leukemia = test system: CCRF-CEM leukemia
SF-539 CNS = test system: SF-539 CNS
DMS 114 small cell lung = test system: DMS 114 small cell lung
A549 NSCLC = test system: A549 NSCLC
RPMI-8226 leukemia = test system: RPMI-8226 leukemia
OVCAR-5 ovarian = test system: OVCAR-5 ovarian
HCT-116 colon = test system: HCT-116 colon
HOP-62 NSCLC = test system: HOP-62 NSCLC
NCI-H460 lung = test system: NCI-H460 lung
UACC-257 melanoma = test system: UACC-257 melanoma
SK-MEL-5 melanoma = test system: SK-MEL-5 melanoma
ACHN renal = test system: ACHN renal
A498 renal = test system: A498 renal
SNB-19 CNS = test system: SNB-19 CNS
786-0 renal = test system: 786-0 renal
XF 498 CNS = test system: XF 498 CNS
OVCAR-8 ovarian = test system: OVCAR-8 ovarian
HL-60(TB) leukemia = test system: HL-60(TB) leukemia
CAKI-1 renal = test system: CAKI-1 renal
SNB-78 CNS = test system: SNB-78 CNS
IGROV1 ovarian = test system: IGROV1 ovarian
NCI-H23 lung = test system: NCI-H23 lung
DLD-1 colon = test system: DLD-1 colon
HCC-2998 colon = test system: HCC-2998 colon
KM20L2 colon = test system: KM20L2 colon
HOP-18 NSCLC = test system: HOP-18 NSCLC
M14 melanoma = test system: M14 melanoma
HT29 colon = test system: HT29 colon
NCI-H226 lung = test system: NCI-H226 lung
SF-295 CNS = test system: SF-295 CNS
SK-MEL-2 melanoma = test system: SK-MEL-2 melanoma
MALME-3M melanoma = test system: MALME-3M melanoma
K-562 leukemia = test system: K-562 leukemia

Cc1ccncc1.[O]=[Ge].[O]=[Ge].[O]=[Ge].[O]=[Ge].[O]=[Ge].[O]=[Ge][OH].[O]=[Ge][OH]
GI50 (SNB-75 CNS): > 100 µM | TGI (SNB-75 CNS): > 100 µM | GI50 (SF-268 CNS): > 100 µM | TGI (SF-268 CNS): > 100 µM | GI50 (OVCAR-4 ovarian): > 100 µM | TGI (OVCAR-4 ovarian): > 100 µM | GI50 (UO-31 renal): > 100 µM | TGI (UO-31 renal): > 100 µM | GI50 (KM12 colon): > 100 µM | TGI (KM12 colon): > 100 µM | GI50 (EKVX NSCLC): > 100 µM | TGI (EKVX NSCLC): > 100 µM | GI50 (RXF-631 renal): > 100 µM | TGI (RXF-631 renal): > 100 µM | GI50 (HCT-15 colon): > 100 µM | TGI (HCT-15 colon): > 100 µM | GI50 (SN12C renal): > 100 µM | TGI (SN12C renal): > 100 µM | GI50 (TK-10 renal): > 100 µM | TGI (TK-10 renal): > 100 µM | GI50 (LXFL 529 NSCLC): > 100 µM | TGI (LXFL 529 NSCLC): > 100 µM | GI50 (LOX IMVI melanoma): > 100 µM | TGI (LOX IMVI melanoma): > 100 µM | GI50 (OVCAR-3 ovarian): > 100 µM | TGI (OVCAR-3 ovarian): > 100 µM | GI50 (SR leukemia): > 100 µM | TGI (SR leukemia): > 100 µM | GI50 (UACC-62 melanoma): > 100 µM | TGI (UACC-62 melanoma): > 100 µM | GI50 (HOP-92 NSCLC): > 100 µM | TGI (HOP-92 NSCLC): > 100 µM | GI50 (M19-MEL melanoma): > 100 µM | TGI (M19-MEL melanoma): > 100 µM | GI50 (MOLT-4 leukemia): > 100 µM | TGI (MOLT-4 leukemia): > 100 µM | GI50 (DMS 273 small cell lung): > 100 µM | TGI (DMS 273 small cell lung): > 100 µM | GI50 (SW-620 colon): > 100 µM | TGI (SW-620 colon): > 100 µM | GI50 (RXF 393 renal): > 100 µM | TGI (RXF 393 renal): > 100 µM | GI50 (SK-MEL-28 melanoma): > 100 µM | TGI (SK-MEL-28 melanoma): > 100 µM | GI50 (CCRF-CEM leukemia): > 100 µM | TGI (CCRF-CEM leukemia): > 100 µM | GI50 (SF-539 CNS): > 100 µM | TGI (SF-539 CNS): > 100 µM | GI50 (DMS 114 small cell lung): > 100 µM | TGI (DMS 114 small cell lung): > 100 µM | GI50 (A549 NSCLC): > 100 µM | TGI (A549 NSCLC): > 100 µM | GI50 (RPMI-8226 leukemia): > 100 µM | TGI (RPMI-8226 leukemia): > 100 µM | GI50 (OVCAR-5 ovarian): > 100 µM | TGI (OVCAR-5 ovarian): > 100 µM | GI50 (HCT-116 colon): > 100 µM | TGI (HCT-116 colon): > 100 µM | GI50 (HOP-62 NSCLC): > 100 µM | TGI (HOP-62 NSCLC): > 100 µM | GI50 (NCI-H460 lung): > 100 µM | TGI (NCI-H460 lung): > 100 µM | GI50 (UACC-257 melanoma): > 100 µM | TGI (UACC-257 melanoma): > 100 µM | GI50 (SK-MEL-5 melanoma): > 100 µM | TGI (SK-MEL-5 melanoma): > 100 µM | GI50 (ACHN renal): > 100 µM | TGI (ACHN renal): > 100 µM | GI50 (A498 renal): > 100 µM | TGI (A498 renal): > 100 µM | GI50 (SNB-19 CNS): > 100 µM | TGI (SNB-19 CNS): > 100 µM | GI50 (786-0 renal): > 100 µM | TGI (786-0 renal): > 100 µM | GI50 (XF 498 CNS): > 100 µM | TGI (XF 498 CNS): > 100 µM | GI50 (OVCAR-8 ovarian): > 100 µM | TGI (OVCAR-8 ovarian): > 100 µM | GI50 (HL-60(TB) leukemia): > 100 µM | TGI (HL-60(TB) leukemia): > 100 µM | GI50 (CAKI-1 renal): > 100 µM | TGI (CAKI-1 renal): > 100 µM | GI50 (SNB-78 CNS): > 100 µM | TGI (SNB-78 CNS): > 100 µM | GI50 (IGROV1 ovarian): > 100 µM | TGI (IGROV1 ovarian): > 100 µM | GI50 (NCI-H23 lung): > 100 µM | TGI (NCI-H23 lung): > 100 µM | GI50 (DLD-1 colon): > 100 µM | TGI (DLD-1 colon): > 100 µM | GI50 (HCC-2998 colon): > 100 µM | TGI (HCC-2998 colon): > 100 µM | GI50 (KM20L2 colon): > 100 µM | TGI (KM20L2 colon): > 100 µM | GI50 (HOP-18 NSCLC): > 100 µM | TGI (HOP-18 NSCLC): > 100 µM | GI50 (M14 melanoma): > 100 µM | TGI (M14 melanoma): > 100 µM | GI50 (HT29 colon): > 100 µM | TGI (HT29 colon): > 100 µM | GI50 (NCI-H226 lung): > 100 µM | TGI (NCI-H226 lung): > 100 µM | GI50 (SF-295 CNS): > 100 µM | TGI (SF-295 CNS): > 100 µM | GI50 (SK-MEL-2 melanoma): > 100 µM | TGI (SK-MEL-2 melanoma): > 100 µM | GI50 (MALME-3M melanoma): > 100 µM | TGI (MALME-3M melanoma): > 100 µM | GI50 (K-562 leukemia): > 100 µM | TGI (K-562 leukemia): > 100 µM
